Test results: patent US5580552A, “7-glycosyloxybenzopyran derivative and antiallergic agent containing the derivative as active ingredient” (priority 1994, dated 1996)

Assays:
[1] = test system: experimental asthma model (airway resistance); assay: Effect on experimental asthma model in guinea pigs (airway resistance); assay type: in vivo, guinea pigs (male hartley); conditions: Cavia porcellus, 0.5 h; for inhibition in vivo at 50 mg/kg: po, 50 mg/kg oral (TABLE 6)
Method: Effect on experimental asthma model in guinea pigs
The asthma is typical allergic disease and we carried out this pharmacological test by well known experimental asthma model in guinea pigs in order to comfirm that the compounds of the present invention suppress the asthma. In the following, the method of the pharmacological test will be explained.
Method: Male hartley guinea pigs were immunized by intraperitoneal injection of saline (1ml) containing 5 mg of ovalbumine (OVA) three times at interval of one week. 2 weeks after final immunization, the animals were challenged by inhalation of 1% OVA-saline solution for 1 minute and then the airway resistance of the animals were measured for 30 minutes with PULMOS-1 (Medical Interface Project Station Inc.) after the inhalation. The compounds of the present invention (test compounds) suspended in 0.5% CMCNa were given orally at a dose of 50 mg/kg. As positive control group, Disodium Cromoglicate (DSCG), well known anti-allergic agent, in saline were injected at a dose of 20 mg/kg into the vein of the animals. As vehicle control group, only 0.5% CMCNa solution were given orally. The inhibition (%) of the airway resistance in vehicle control group was calculated according to equation 5 and the result was shown in TABLE 6. Each experimental group consisted of 5 guinea pigs. [formula]
A: Maximum airway resistance in vehicle control group
B: Maximum airway resistance in test compounds group or positive control group

[2] = test system: contact dermatitis induced by picryl chloride; assay: Effect on contact dermatitis induced by picryl chloride in mice; assay type: in vivo; conditions: for inhibition in vivo at 50 mg/kg: 50 mg/kg oral, 1 hour before and 16 hours after challenge, 24 hours after challenge
Method: Effect on contact dermatitis induced by picryl chloride in mice
The delayed type hypersensitization is inhibited by steroid drugs,but can not be effected by known anti-allergic agents. In the following, the method of the pharmacological test will be explained.
Method: Mice, shaved their abdominal skin on previous day, were immunized by applying 0.1 ml of acetone containing 7 mg of picryl chloride to the skin of the abdomen. 7 days after immunization, the thickness of the ear was measured with a dial thickness gauge, then mice were challenged by painting 5 μl of 1% picryl chloride olive oil solution to each side skin of left ear. 24 hours after challenge, the thickness of the left ear was measured again and the increase (%) of thickness was calculated according to equation 2. The compounds of the present invention (test compounds) suspended in 0.5% CMCNa were forcibly administered orally at a dose of 50 mg/kg at 1 hour before and 16 hours after challenge. As vehicle control group, only 0.5% CMCNa solution were administered orally, and as positive control group, Prednisolone, steroid hormone, and Tranilast were administered orally at the doses of 10 mg/kg and 100 mg/kg, respectively.
Increase (%)=(A-B)/B×100 (Equation 2)
A: thickness of the ear at 24 hours after challenge
B: thickness of the ear before challenge
Inhibition (%)=(C-D)/C×100 (equation 3)
C: The increase (%) in vehicle control group
D: The increase (%) in test compounds group or positive control group

[3] = test system: homologous passive cutaneous anaphylaxis (PCA) reaction; assay: Effect on homologous passive cutaneous anaphylaxis (PCA) reaction in rats; assay type: in vivo, rats (male wistar); conditions: Rattus norvegicus, po, 0.5 h; for inhibition in vivo at 50 mg/kg: 50 mg/kg oral, 1 hour before challenge (TABLE 2)
Method: Effect on homologous passive cutaneous anaphylaxis (PCA) reaction in rats.
This experimental animal model is caused by immediate type allergic reaction namely, antigen-antibody reaction. In the following, the method of this pharmacological test will be explained.
Method: Male wistar rats (9 weeks old) were intradermally administered 0.05 ml of anti-serum against dinitrophenylated ascaris (DNP-As) into two sites on the shaved dorsal skin. 48 hours later, 7-glycosyloxybenzopyran derivatives (test compounds) suspended in 0.5% sodium carboxymethylcellulose (CMCNa) were given orally at a dose of 50 mg/kg to the animals. One hour after administration of Test compounds, the animals were induced anaphylaxis by injection of saline (1 ml) dissolving 5 mg of Evans Blue and 1 mg of Trinitrophenylated ascaris (TNP-As) into the tail vein of the animals. 30 minutes after induction of anaphylaxis, animals were anesthetized by ether and killed by bleeding, and were flayed dorsal skin. The determination of extravasated dye was performed according to the method of Katayama et al. (Microbiol. Immunol., Vol.22, P 89-101, 1978). As vehicle control group, only 0.5% CMCNa solution was administered orally, and as positive control group, Tranilast suspended in 0.5% CMCNa was administered orally at a dose of 100 mg/kg to the animals with the same method as the test compounds groups. Each experimental group consisted of 5 rats. [formula]

[4] = Mus musculus, po, 24 h, read-out: Inhibition (%) against the increase of ear thickness

Row | SMILES | inhibition in vivo at 20 mg/kg ([1]; iv, positive control DSCG, 20 mg/kg into the vein (TABLE 6)) [%] | inhibition in vivo at 10 mg/kg [2, 4] [%] | inhibition in vivo at 100 mg/kg ([3]; positive control, 100 mg/kg oral (TABLE 2)) [%] | inhibition in vivo at 100 mg/kg ([2]; Mus musculus, po, 24 h, positive control Tranilast, 100 mg/kg oral, read-out: Inhibition (%) against the increase of ear thickness) [%] | inhibition of delayed type hypersensitization ([2]; Tranilast, 100 mg/kg oral) | inhibition in vivo at 50 mg/kg [3] [%] | inhibition in vivo at 50 mg/kg [2, 4] [%] | inhibition in vivo at 50 mg/kg [1] [%]
1 | O=C(O)c1cc(=O)c2c(OCC(O)COc3cccc4oc(C(=O)O)cc(=O)c34)cccc2o1 [DSCG, Disodium Cromoglicate, reference compound] | 51.2 |  |  |  |  |  |  | 
2 | C[C@]12C=CC(=O)C=C1CC[C@@H]1[C@@H]2[C@@H](O)C[C@@]2(C)[C@H]1CC[C@]2(O)C(=O)CO [Prednisolone, reference compound] |  | 63.7 |  |  |  |  |  | 
3 | COc1ccc(/C=C/C(=O)Nc2ccccc2C(=O)O)cc1OC [Tranilast, reference compound] |  |  | 54.6 | 4.3 | did not inhibit delayed type hypersensitization |  |  | 
4 | COc1c(O)c2ccc(O[C@@H]3O[C@H](CO)[C@@H](O)[C@H](O)[C@H]3O)cc2oc1=O [compound 3, 3-methoxy-4-hydroxy-7-(β-D-glucopyranosyloxy)-2H-1-benzopyran-2-one] |  |  |  |  |  | 53.1 | 51.3 | 63.1
5 | COc1c(O)c2ccc(O[C@H]3O[C@H](CO)[C@@H](O)[C@H](O)[C@@H]3O)cc2oc1=O [compound 8, 3-methoxy-4-hydroxy-7-(α-D-mannopyranosyloxy)-2H-1-benzopyran-2-one] |  |  |  |  |  | 49.2 | 50.3 | 59.2
6 | COc1c(O)c2ccc(O[C@@H]3O[C@H](CO)[C@H](O)[C@H](O)[C@H]3O)cc2oc1=O [compound 9, 3-methoxy-4-hydroxy-7-(β-D-galactopyranosyloxy)-2H-1-benzopyran-2-one] |  |  |  |  |  | 54.5 | 52.1 | 60.3
7 | CC(=O)Oc1c(O)c2ccc(O[C@@H]3O[C@H](CO)[C@@H](O)[C@H](O)[C@H]3O)cc2oc1=O [compound 11, 3-acetoxy-4-hydroxy-7-(β-D-glucopyranosyloxy)-2H-1-benzopyran-2-one] |  |  |  |  |  | 43.2 | 44.3 | 45.7
8 | CCCCCCOc1c(OC(C)=O)c(=O)oc2cc(O[C@@H]3O[C@H](COC(C)=O)[C@H](OC(C)=O)[C@H](OC(C)=O)[C@H]3OC(C)=O)ccc12 [compound 15, 3-acetoxy-4-hexyloxy-7-(tetra-O-acetyl-β-D-galactopyranosyloxy)-2H-1-benzopyran-2-one] |  |  |  |  |  | 40.1 | 41.2 | 42.1
9 | CCCCCCCCOc1c(OC(C)=O)c(=O)oc2cc(O[C@@H]3O[C@H](COC(C)=O)[C@@H](OC(C)=O)[C@H](OC(C)=O)[C@H]3OC(C)=O)ccc12 [compound 16, 3-acetoxy-4-octyloxy-7-(tetra-O-acetyl-β-D-glucopyranosyloxy)-2H-1-benzopyran-2-one] |  |  |  |  |  | 42.3 | 43.5 | 40.2
10 | CCCCOc1c(O)c(=O)oc2cc(O[C@@H]3O[C@H](CO)[C@H](O)[C@H](O)[C@H]3O)ccc12 [compound 18, 3-hydroxy-4-butoxy-7-(β-D-galactopyranosyloxy)-2H-1-benzopyran-2-one] |  |  |  |  |  | 42.5 | 40.2 | 52.3
11 | CCCCCCOc1c(O)c(=O)oc2cc(O[C@@H]3O[C@H](CO)[C@@H](O)[C@H](O)[C@H]3O)ccc12 [compound 19, 3-hydroxy-4-hexyloxy-7-(β-D-glucopyranosyloxy)-2H-1-benzopyran-2-one] |  |  |  |  |  | 44.9 | 47.1 | 65.2
12 | CCCCCCOc1c(O)c(=O)oc2cc(O[C@H]3O[C@H](CO)[C@@H](O)[C@H](O)[C@@H]3O)ccc12 [compound 20, 3-hydroxy-4-hexyloxy-7-(α-D-mannopyranosyloxy)-2H-1-benzopyran-2-one] |  |  |  |  |  | 42.3 | 45.2 | 55.4
13 | CCCCCCOc1c(O)c(=O)oc2cc(O[C@@H]3O[C@H](CO)[C@H](O)[C@H](O)[C@H]3O)ccc12 [compound 21, 3-hydroxy-4-hexyloxy-7-(β-D-galactopyranosyloxy)-2H-1-benzopyran-2-one] |  |  |  |  |  | 45.2 | 48.9 | 63.1
14 | CCCCCCCCOc1c(O)c(=O)oc2cc(O[C@@H]3O[C@H](CO)[C@@H](O)[C@H](O)[C@H]3O)ccc12 [compound 22, 3-hydroxy-4-octyloxy-7-(β-D-glucopyranosyloxy)-2H-1-benzopyran-2-one] |  |  |  |  |  | 43.6 | 47.3 | 60.6
15 | CCCCCCCCOc1c(O)c(=O)oc2cc(O[C@@H]3O[C@H](CO)[C@H](O)[C@H](O)[C@H]3O)ccc12 [compound 23, 3-hydroxy-4-octyloxy-7-(β-D-galactopyranosyloxy)-2H-1-benzopyran-2-one] |  |  |  |  |  | 44.7 | 49.3 | 61.5
16 | CCCCCCCCOc1c(OCc2ccccc2)c2ccc(O[C@@H]3O[C@H](COCc4ccccc4)[C@@H](OCc4ccccc4)[C@H](OCc4ccccc4)[C@H]3OCc3ccccc3)cc2oc1=O [compound 35] |  |  |  |  |  | 42.2 | 40.5 | 38.2
17 | CCCCOc1c(O)c2ccc(O[C@@H]3O[C@H](CO)[C@@H](O)[C@H](O)[C@H]3O)cc2oc1=O [compound 37] |  |  |  |  |  | 55.1 | 53.9 | 68.2
18 | CCCCCCOc1c(O)c2ccc(O[C@@H]3O[C@H](CO)[C@@H](O)[C@H](O)[C@H]3O)cc2oc1=O [compound 38] |  |  |  |  |  | 59.3 | 63.7 | 75.5
19 | CCCCCCCCOc1c(O)c2ccc(O[C@@H]3O[C@H](CO)[C@@H](O)[C@H](O)[C@H]3O)cc2oc1=O [compound 39] |  |  |  |  |  | 62.2 | 65.1 | 77.8
20 | CCCCCCCCCCOc1c(O)c2ccc(O[C@@H]3O[C@H](CO)[C@@H](O)[C@H](O)[C@H]3O)cc2oc1=O [compound 40] |  |  |  |  |  | 57.3 | 62.1 | 73.1
21 | CCCCCCCCCCCCOc1c(O)c2ccc(O[C@@H]3O[C@H](CO)[C@@H](O)[C@H](O)[C@H]3O)cc2oc1=O [compound 41] |  |  |  |  |  | 55.4 | 60.1 | 70.2
22 | CC(C)Oc1c(O)c2ccc(O[C@@H]3O[C@H](CO)[C@@H](O)[C@H](O)[C@H]3O)cc2oc1=O [compound 42] |  |  |  |  |  | 56.4 | 58.3 | 68.5
23 | CC1CCC(Oc2c(O)c3ccc(O[C@@H]4O[C@H](CO)[C@@H](O)[C@H](O)[C@H]4O)cc3oc2=O)CC1 (some centres unmarked) [compound 43] |  |  |  |  |  | 57.9 | 55.4 | 70.7
